Results: US20160250128A1, “TARGETED CAPSULES FOR THE DELIVERY OF SKIN WHITENING AGENTS IN THE SKIN” (INFINITEC ACTIVOS, S.L., priority 2013, published 2016)

What was measured:
Human melanocytes [1] = test: Cell viability of treated melanocytes (CCK-8); assay type: cell-based; conditions: IBMX 100 μM alone, control = 100
Experimental: (§1) Day 1—Human melanocytes are rise by trypsinization and centrifuge at 1500 rpm (433×g) in an Allegra X-22R (Beckman Coulter) centrifuge during 5 minutes, and then are resuspended in 1 ml of a complete culture medium to count the number of cells. A volume of 10 μl of the cells solution was dyed with Trypan Blue colorant and the cells are counted with a hemocytometer. Then a cell solution is prepared at a concentration of 2.5×10^5 cells/ml in a complete medium and 100 μl of the cell suspension is seed in wells of 96 well plates. The plates are incubated at 37° C. in a 5% CO2 atmosphere.
Day 2—The seed cells are washed and treated with the different products in basal conditions and promelanogenic conditions. […]
The products are tested at 3 different concentrations in the presence and absence of the melanogenic inductor (100 μM), i.e. isobutyl methyl-xantine (IBMX). […] The melanin accumulation inside the cells is monitored daily by optical microscopy. […]
Day 5—Determination of cell viability: In order to determine de number of viable cells, 10 μl of CCK-8 (WST-8) is added in each well. The plates are incubated at 37° C. during 1 hour and the absorbance is measured at 450 nm using Synergy II multimode (Biotek Instruments Inc., Winooski, Estados Unidos). The mode and SD is calculated for each concentration using Microsoft Excel application (see FIG. 2 and table 2)

Human melanocytes [2] = test: Melanin determination in treated melanocytes; assay type: cell-based; conditions: for % MELANINE CONTENT: determined as in examples 4 and 5, concentration not given
Experimental: as §1
Day 2—The seed cells are washed and treated with the different products in basal conditions and promelanogenic conditions. For that, the medium is removed of wells and 100 μl of the products in basal medium with 0.5% of FBS is added. Previously, the test products are solubilised in the same medium. Arbutin is solubilised in ethanol.
The products are tested at 3 different concentrations in the presence and absence of the melanogenic inductor (100 μM), i.e. isobutyl methyl-xantine (IBMX). The plates are incubated 37° C. and 5% CO2 during 5 days. The experiments are carried out using 4 wells per condition. The melanin accumulation inside the cells is monitored daily by optical microscopy.
Days 3 and 4—All treatments are renewed every 24 hours.
In order to determine the melanin content in cells treated as described in example 4, the medium is removed from each well and cells are washed with PBS 1N and incubated during 3 days at 37° C. facilitating the solubilisation of the melanin in NaOH.
Day 7—Once the solubilisation of melanin is complete, 50 μl de H2O2 MilliQ is added per well and the content is determined by absorbance using a Synergy II (Biotek Instruments Inc., Winooski, USA) at 390 nm. The mode and SD is calculated for each
The activity of several peptides of formula (II) (listed in table 3 below) to reduce melanine was determined as explained in example 5 after treating the cells as explained in example 4.

cultured cells = conditions: cited from earlier work
facial hyperpigmentation = conditions: clinical studies; cited from earlier work
Human dermal fibroblasts = test: Cytotoxicity assay (MTT); assay type: cell-based; conditions: positive control 0.1% SDS, 48 h
Experimental: (§2) Human dermal fibroblasts and human keratinocytes were used. The isolated cells were cultured in DMEM culture medium supplemented with 10% FCS and were incubated at 37° C. for maintenance treatment. Untreated cells were used as negative control. The positive control was 0.1% SDS. The microcapsules as obtained in Example 1 were tested in the DMEM culture medium at two concentrations: 0.03% and 0.3%. These weight percentages refer to the weight of the microcapsule in relation to the total weight.
(§3) Cells were seeded at 20000 cells per well in a 96-well plate. 24 hours after seeding, cells were incubated under the conditions described above. After 48 h of incubation at 37° C., the culture medium was removed and the MTT reagent was added. Cells were incubated 2 hours at 37° C. DMSO was then added and the absorbance of the formed formazan salt was measured at A 570 nm. Lower absorbance values correspond to cells with lower metabolic activity, which correlates with an increased damage and, therefore, with an increased cytotoxic effect. Thus, the amount of living cells is proportional to the amount of formazan produced.

human keratinocytes = test: Cytotoxicity assay (MTT); assay type: cell-based; conditions: positive control 0.1% SDS, 48 h
Experimental: as §2, §3

cultured melanocytes = conditions: cited from earlier work

## CC(C)Cn1c(=O)n(C)c(=O)c2[nH]cnc21 [Isobutyl methyl-xantine (IBMX), Isobutyl methyl-xantine, reference compound]
Human melanocytes [1]
  Cell viability: 90%
Human melanocytes [2]; IBMX 100 μM alone, control = 100
  Melanin content (%): 174 ± 12%

## NC(=O)c1cccnc1 [Niacinamide]
Cultured cells
  melanosome transfer: inhibit melanosome transfer in cultured cells
Facial hyperpigmentation
  appearance of hyperpigmented spots: reduce the appearance of hyperpigmented spots

## CCCCCCCCCCCCOS(=O)(=O)[O-].[Na+] [SDS]
Human dermal fibroblasts
  % cell viability: 30.0%
Human keratinocytes
  % cell viability: 13.0%

## C=CCCCCCCCCC(=O)N[C@@H](Cc1ccccc1)C(=O)O [Sepiwhite, N-undecyl-10-enoyl-L-phenylalanine]
Cultured melanocytes
  melanin production: reduces melanin production in cultured melanocytes

## Ac-Ile-Ser-(d)Leu-Leu-Asp-(d)Ala-Gln-Ser-NH2 (ISLLDAQS; HELM PEPTIDE1{[ac].I.S.[dL].L.D.[dA].Q.S.[am]}$$$$V2.0; SMILES CC[C@H](C)[C@H](NC(C)=O)C(=O)N[C@@H](CO)C(=O)N[C@H](CC(C)C)C(=O)N[C@@H](CC(C)C)C(=O)N[C@@H](CC(=O)O)C(=O)N[C@H](C)C(=O)N[C@@H](CCC(N)=O)C(=O)N[C@@H](CO)C(N)=O) [peptide of formula (II)]
Human melanocytes [2]
  % MELANINE CONTENT: 68%

## Ac-Ile-Ser-Leu-Leu-Asp-(d)Ala-Gln-Ser-NH2 (ISLLDAQS; HELM PEPTIDE1{[ac].I.S.L.L.D.[dA].Q.S.[am]}$$$$V2.0; SMILES CC[C@H](C)[C@H](NC(C)=O)C(=O)N[C@@H](CO)C(=O)N[C@@H](CC(C)C)C(=O)N[C@@H](CC(C)C)C(=O)N[C@@H](CC(=O)O)C(=O)N[C@H](C)C(=O)N[C@@H](CCC(N)=O)C(=O)N[C@@H](CO)C(N)=O) [peptide of formula (II)]
Human melanocytes [2]
  % MELANINE CONTENT: 80%

## Ac-Ile-Ser-Leu-Leu-Asp-Ala-Gln-Ser-NH2 (Ac-ISLLDAQS-NH2) [peptide of formula (II)]
Human melanocytes [2]
  % MELANINE CONTENT: 87%

## Palm-Ile-Ser-(d)Leu-Leu-Asp-(d)Ala-Gln-Ser-NH2 (ISLLDAQS; HELM PEPTIDE1{[CCCCCCCCCCCCCCCC(=O)[*:2]].I.S.[dL].L.D.[dA].Q.S.[am]}$$$$V2.0; SMILES CCCCCCCCCCCCCCCC(=O)N[C@H](C(=O)N[C@@H](CO)C(=O)N[C@H](CC(C)C)C(=O)N[C@@H](CC(C)C)C(=O)N[C@@H](CC(=O)O)C(=O)N[C@H](C)C(=O)N[C@@H](CCC(N)=O)C(=O)N[C@@H](CO)C(N)=O)[C@@H](C)CC) [peptide of formula (II)]
Human melanocytes [2]
  % MELANINE CONTENT: 65%

## Palm-Ile-Ser-Leu-Leu-Asp-(d)Ala-Gln-Ser-NH2 (ISLLDAQS; HELM PEPTIDE1{[CCCCCCCCCCCCCCCC(=O)[*:2]].I.S.L.L.D.[dA].Q.S.[am]}$$$$V2.0; SMILES CCCCCCCCCCCCCCCC(=O)N[C@H](C(=O)N[C@@H](CO)C(=O)N[C@@H](CC(C)C)C(=O)N[C@@H](CC(C)C)C(=O)N[C@@H](CC(=O)O)C(=O)N[C@H](C)C(=O)N[C@@H](CCC(N)=O)C(=O)N[C@@H](CO)C(N)=O)[C@@H](C)CC) [peptide of formula (II)]
Human melanocytes [2]
  % MELANINE CONTENT: 78%

## Palm-Ile-Ser-Leu-Leu-Asp-Ala-Gln-Ser-NH2 (ISLLDAQS; HELM PEPTIDE1{[CCCCCCCCCCCCCCCC(=O)[*:2]].I.S.L.L.D.A.Q.S.[am]}$$$$V2.0; SMILES CCCCCCCCCCCCCCCC(=O)N[C@H](C(=O)N[C@@H](CO)C(=O)N[C@@H](CC(C)C)C(=O)N[C@@H](CC(C)C)C(=O)N[C@@H](CC(=O)O)C(=O)N[C@@H](C)C(=O)N[C@@H](CCC(N)=O)C(=O)N[C@@H](CO)C(N)=O)[C@@H](C)CC) [peptide of formula (II)]
Human melanocytes [2]
  % MELANINE CONTENT: 85%
